Key:
[1] = target: T1, E. coli PBP3 (Escherichia coli, UniProt P0AD68); test: Bocillin FL competition binding assay, PBP3; design: species or system Escherichia coli K12; settings: 15 min pre-incubation
T1 construct: 100 μg's of total membrane protein extracts containing PBPs; endogenous in cells; host or cells: Escherichia coli K12, membrane protein fraction
Method in brief: (§1)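 E. coli K12 membrane extracts (100 µg protein) pre-incubated 15 min with compound (0.005–2,480 µg/mL) in pH 7 phosphate/350 mM NaCl, then labelled with Bocillin FL 30 min at 35°C; SDS-PAGE fluorescence (ex 450/em 520 nm), μg/mL reported. PBP1a/1b unresolved, reported combined.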

[2] = target: T2, E. coli K12 PBP1b (Escherichia coli, UniProt P02919); test: Competition binding assay using Bodipy-FL boronic acid probe (Example 125); settings: Bodipy-FL boronic acid probe (Example 125) 30 μM, 10 minutes pre-incubation, 10 minutes reaction
T2 construct: endogenous in cells; host or cells: Escherichia coli K12, membrane protein fraction
T2 sequence (P02919 whole entry): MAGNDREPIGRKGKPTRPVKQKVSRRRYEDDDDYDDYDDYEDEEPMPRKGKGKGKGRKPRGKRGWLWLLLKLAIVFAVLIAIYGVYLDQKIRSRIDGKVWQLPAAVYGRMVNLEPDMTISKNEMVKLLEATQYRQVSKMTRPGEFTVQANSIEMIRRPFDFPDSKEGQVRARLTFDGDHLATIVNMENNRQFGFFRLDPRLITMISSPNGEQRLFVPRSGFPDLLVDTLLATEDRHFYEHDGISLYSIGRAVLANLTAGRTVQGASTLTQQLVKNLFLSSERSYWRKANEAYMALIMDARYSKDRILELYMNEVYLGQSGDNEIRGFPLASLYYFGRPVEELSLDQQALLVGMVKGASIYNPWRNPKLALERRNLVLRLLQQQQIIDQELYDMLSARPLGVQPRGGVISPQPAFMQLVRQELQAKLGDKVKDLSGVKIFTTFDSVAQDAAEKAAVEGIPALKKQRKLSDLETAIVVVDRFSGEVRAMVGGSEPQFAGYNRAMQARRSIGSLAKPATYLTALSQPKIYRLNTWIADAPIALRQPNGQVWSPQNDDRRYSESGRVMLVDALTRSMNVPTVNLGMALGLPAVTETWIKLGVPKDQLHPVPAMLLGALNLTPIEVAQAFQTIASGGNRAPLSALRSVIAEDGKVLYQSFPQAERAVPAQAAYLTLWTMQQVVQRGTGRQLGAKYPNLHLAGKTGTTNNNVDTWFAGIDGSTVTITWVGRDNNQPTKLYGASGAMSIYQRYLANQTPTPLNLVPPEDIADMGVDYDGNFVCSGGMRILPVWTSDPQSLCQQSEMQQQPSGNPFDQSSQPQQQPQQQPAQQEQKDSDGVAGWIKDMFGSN
Protocol: Penicillin binding proteins were isolated from Escherichia coli K12 by growth of Escherichia coli K12 from a single colony in 4 L of Luria-Bertani (LB) broth at 35° C. and 250 rpm to an OD600 nm of 0.5. The cells were harvested by centrifugation at 7,000×g for 10 min. at 4° C. Cells were resuspended and washed in 50 mM potassium phosphate pH 7.5. The cells were re-suspended in sonication buffer [50 mM Tris-HCl pH 7.5, 1 mM MgCl2, 1 mM beta-mercaptoethanol, and 5 μg/mL DNAse I] and sonicated by 4 passes of 30 seconds at 45 W on ice. The sample was clarified by centrifugation at 3,000×g to remove cell debris and unbroken cells and supernatant containing the membrane proteins was retained. The membrane proteins including the PBPs were further purified from soluble constituents by an ultracentrifugation step at 100,000×g for 30 min. at 4° C. The membrane proteins are washed twice with 10 mM sodium phosphate pH 7, resuspended in a volume of 5 mL, quantitated by BCA assay, adjusted to […] and frozen at −80° C. until use.
The adapted Bocillin FL competition binding method described herein incorporates a 15 min. pre-incubation of test compound with isolated PBPs to attempt to balance the difference in mechanism of inhibition between beta-lactams (largely irreversible covalent bond to active site Serine) and the boron-containing PBP inhibitor test compounds (reversible covalent bond to active site Serine). Briefly, 50 μL reactions consisted of 100 μg's of total membrane protein extracts containing PBPs incubated with a dilution series of test compound ranging from 0.005 μg/mL to 2,480 μg/mL in 10 mM sodium phosphate pH7 containing 350 mM NaCl. Thirty minute reactions at 35° C. were initiated by addition of […] Bocillin FL, quenched by addition of SDS-PAGE loading buffer containing sodium dodecyl sulfate (SDS) and heated for 15 minutes at 95° C. to denature proteins in preparation for SDS-polyacrylamide gel electrophoresis. The Bocillin FL labeled PBPs are then separated by SDS-PAGE in Novex NuPage 10% Bis-Tris pre-cast gels (Invitrogen). The SDS-PAGE gel, post-electrophoresis, is then washed in water to remove excess SDS for 10 minutes at room temperature and placed on the scanning bed of a GE Healthcare/Amersham Biosciences Storm 860 fluorescence scanner. The excitation wavelength is in the blue spectrum at 450 nm and the emission at 520 nm is captured by the instrument. Effective PBP inhibitors are detected by a reduction in Bocillin FL labeling of the particular PBP over the dose range of test compound in a dose-responsive manner. High molecular weight PBP 1a/1b are not resolved by these gels, thus we report HMW PBP binding results in μg/mL for PBPs 1a/1b combined as well as for PBP2 and PBP3.
To determine the ability of boronic acid-based test PBP inhibitors to bind Penicillin Binding Proteins (PBPs), a competition binding assay using a Bodipy-FL-labeled boronic acid PBP inhibitor (Example 125) was adapted from the classical method used to assess PBP potency of beta-lactams using Bocillin-FL (fluorescently-labeled penicillin V). The method is identical to that described in Example I for the Bocillin-FL competition binding assay with the following exceptions, the Bodipy-FL boronic acid probe (Example 125) is used at a final concentration of 30 μM, pre-incubation time of test compound with PBP enzymes is 10 minutes and reaction time is set for 10 minutes and reactions are prepared for SDS-PAGE analysis by simply adding SDS-containing loading buffer. Representative results are shown in Table 5, where A represents a potency of >1000 μg/mL, B represents a potency between 64 and 1000 μg/mL inclusive, and C represents a potency of <64 μg/mL. NT=Not Tested.

[3] = system: E. coli K12 PBP1a/b; test: Bocillin FL competition binding assay, PBP1a/1b combined; design: species or system Escherichia coli K12; settings: 15 min pre-incubation, PBP 1a/1b combined
Method in brief: as §1

[4] = system: S. aureus ATCC 29213; test: Broth microdilution MIC assay, S. aureus; type: cell-based; settings: Staphylococcus aureus, ATCC29213; broth microdilution, 16-20 hours at 37° C.; read-out: S. aureus 29213 MIC
Method in brief: (§2)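 Two-fold serial dilutions tested per CLSI in cation-supplemented Mueller-Hinton broth against S. aureus ATCC 29213 and hyper-permeable E. coli 901C; inoculum 5×10^5 CFU/mL from 3-5 h log-phase culture. Incubated 16-20 h at 37° C; MIC read visually as lowest concentration with no growth.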

[5] = target: T3, E. coli PBP2 (Escherichia coli, UniProt P0AD65); test: Bocillin FL competition binding assay, PBP2; design: species or system Escherichia coli K12; settings: 15 min pre-incubation
T3 construct: 100 μg's of total membrane protein extracts containing PBPs; endogenous in cells; host or cells: Escherichia coli K12, membrane protein fraction
T3 sequence (P0AD65 whole entry): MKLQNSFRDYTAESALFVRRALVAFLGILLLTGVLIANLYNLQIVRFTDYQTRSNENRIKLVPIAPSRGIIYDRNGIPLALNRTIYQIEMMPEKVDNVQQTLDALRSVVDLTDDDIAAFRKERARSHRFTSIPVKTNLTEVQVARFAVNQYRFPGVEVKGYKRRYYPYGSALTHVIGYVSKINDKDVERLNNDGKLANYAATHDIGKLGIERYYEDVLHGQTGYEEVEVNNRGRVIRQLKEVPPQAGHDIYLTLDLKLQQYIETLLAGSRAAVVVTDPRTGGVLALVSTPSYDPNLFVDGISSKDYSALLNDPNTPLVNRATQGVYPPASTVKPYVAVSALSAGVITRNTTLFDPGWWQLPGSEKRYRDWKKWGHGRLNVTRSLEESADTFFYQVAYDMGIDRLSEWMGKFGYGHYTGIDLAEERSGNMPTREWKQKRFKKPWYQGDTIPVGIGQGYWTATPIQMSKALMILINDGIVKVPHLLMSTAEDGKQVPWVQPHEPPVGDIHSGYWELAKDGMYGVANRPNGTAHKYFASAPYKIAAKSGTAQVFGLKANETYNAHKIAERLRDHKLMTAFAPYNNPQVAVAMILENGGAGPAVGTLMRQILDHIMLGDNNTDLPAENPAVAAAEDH
Method in brief: as §1

[6] = system: hyper-permeable E. coli 901C; test: Broth microdilution MIC assay, hyper-permeable E. coli; type: cell-based; settings: Escherichia coli, read-out: E. coli 901C MIC
Method in brief: as §2

T1 sequence (P0AD68 1-577): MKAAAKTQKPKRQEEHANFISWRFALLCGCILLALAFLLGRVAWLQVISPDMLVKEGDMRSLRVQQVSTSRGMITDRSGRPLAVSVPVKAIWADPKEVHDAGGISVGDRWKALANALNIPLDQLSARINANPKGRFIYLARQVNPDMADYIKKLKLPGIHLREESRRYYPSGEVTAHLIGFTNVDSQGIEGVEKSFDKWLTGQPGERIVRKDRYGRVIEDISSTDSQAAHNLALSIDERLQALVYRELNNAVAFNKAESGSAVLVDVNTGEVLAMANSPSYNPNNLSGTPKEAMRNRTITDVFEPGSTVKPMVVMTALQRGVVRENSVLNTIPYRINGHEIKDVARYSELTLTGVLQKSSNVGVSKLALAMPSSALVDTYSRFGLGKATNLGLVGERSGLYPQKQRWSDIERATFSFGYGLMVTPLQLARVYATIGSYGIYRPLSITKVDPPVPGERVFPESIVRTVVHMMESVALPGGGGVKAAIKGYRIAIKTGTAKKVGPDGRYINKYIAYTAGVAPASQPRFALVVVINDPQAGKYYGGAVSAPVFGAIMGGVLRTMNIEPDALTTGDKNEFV

SMILES | E. coli PBP3 Potency [1] | E. coli K12 PBP1b Potency [2] | E. coli K12 PBP1a/b Potency [3] | MIC [4] | E. coli PBP2 Potency [5] | MIC [6]
N=C(NC1CCNCC1)c1ccc(OCCO/N=C(\C(=O)N[C@H]2Cc3cccc(C(=O)O)c3OB2O)c2csc(N)n2)cc1 [Example 47, (R,Z)-3-(2-(2-aminothiazol-4-yl)-2-((2-(4-(N-(piperidin-4-yl)carbamimidoyl)phenoxy)ethoxy)imino)acetamido)-2-hydroxy-3,4-dihydro-2H-benzo[e][1,2]oxaborinine-8-carboxylic Acid] | B (B represents a potency between 64 and 1000 μg/mL inclusive) | B (B represents a potency between 64 and 1000 μg/mL inclusive) | B (B represents a potency between 64 and 1000 μg/mL inclusive) | 64 to 128 µg/mL | B (B represents a potency between 64 and 1000 μg/mL inclusive) | < 64 µg/mL
CCO/N=C(\C(=O)N[C@H]1Cc2cccc(C(=O)O)c2OB1O)c1csc(N)n1 [Example 48, (R,Z)-3-(2-(2-aminothiazol-4-yl)-2-(ethoxyimino)acetamido)-2-hydroxy-3,4-dihydro-2H-benzo[e][1,2]oxaborinine-8-carboxylic Acid] | B (B represents a potency between 64 and 1000 μg/mL inclusive) | B (B represents a potency between 64 and 1000 μg/mL inclusive) | B (B represents a potency between 64 and 1000 μg/mL inclusive) | 64 to 128 µg/mL | B (B represents a potency between 64 and 1000 μg/mL inclusive) | < 64 µg/mL
CC(C)(O/N=C(\C(=O)N[C@H]1Cc2cccc(C(=O)O)c2OB1O)c1csc(N)n1)C(=O)N[C@@H](CO)C(=O)O [Example 74, (R)-3-((Z)-2-(2-aminothiazol-4-yl)-2-(((1-(((S)-1-carboxy-2-hydroxyethyl)amino)-2-methyl-1-oxopropan-2-yl)oxy)imino)acetamido)-2-hydroxy-3,4-dihydro-2H-benzo[e][1,2]oxaborinine-8-carboxylic Acid] | C (C represents a potency of <64 μg/mL) |  | C (C represents a potency of <64 μg/mL) | > 128 µg/mL | C (C represents a potency of <64 μg/mL) | < 64 µg/mL
CC(C)(O/N=C(\C(=O)N[C@H]1Cc2cccc(C(=O)O)c2OB1O)c1csc(N)n1)C(=O)NCC(=O)O [Example 75, (R,Z)-3-(2-(2-aminothiazol-4-yl)-2-(((1-((carboxymethyl)amino)-2-methyl-1-oxopropan-2-yl)oxy)imino)acetamido)-2-hydroxy-3,4-dihydro-2H-benzo[e][1,2]oxaborinine-8-carboxylic Acid] | C (C represents a potency of <64 μg/mL) |  | C (C represents a potency of <64 μg/mL) | > 128 µg/mL | C (C represents a potency of <64 μg/mL) | < 64 µg/mL
Nc1nc(/C(=N/OCC(O)CO)C(=O)N[C@H]2Cc3cccc(C(=O)O)c3OB2O)cs1 (stereo partly drawn) [Example 76, (3R)-3-((Z)-2-(2-aminothiazol-4-yl)-2-((2,3-dihydroxypropoxy)imino)acetamido)-2-hydroxy-3,4-dihydro-2H-benzo[e][1,2]oxaborinine-8-carboxylic Acid] |  | B (B represents a potency between 64 and 1000 μg/mL inclusive) |  | 64 to 128 µg/mL |  | < 64 µg/mL
CC(C)(O/N=C(\C(=O)N[C@H]1Cc2cc(O)cc(C(=O)O)c2OB1O)c1csc(N)n1)C(N)=O [Example 82, (R,Z)-3-(2-(((1-amino-2-methyl-1-oxopropan-2-yl)oxy)imino)-2-(2-aminothiazol-4-yl)acetamido)-2,6-dihydroxy-3,4-dihydro-2H-benzo[e][1,2]oxaborinine-8-carboxylic Acid] |  | B (B represents a potency between 64 and 1000 μg/mL inclusive) |  | > 128 µg/mL |  | < 64 µg/mL
Nc1nc(/C(=C/c2cccnc2)C(=O)N[C@H]2Cc3cccc(C(=O)O)c3OB2O)cs1 [Example 87, (R,Z)-3-(2-(2-aminothiazol-4-yl)-3-(pyridin-3-yl)acrylamido)-2-hydroxy-3,4-dihydro-2H-benzo[e][1,2]oxaborinine-8-carboxylic Acid] | B (B represents a potency between 64 and 1000 μg/mL inclusive) |  | A (A represents a potency of >1000 μg/mL) | 64 to 128 µg/mL | B (B represents a potency between 64 and 1000 μg/mL inclusive) | < 64 µg/mL
Nc1nc(/C(=C\C(=O)O)C(=O)N[C@H]2Cc3cccc(C(=O)O)c3OB2O)cs1 [Example 88, (R,E)-3-(2-(2-aminothiazol-4-yl)-3-carboxyacrylamido)-2-hydroxy-3,4-dihydro-2H-benzo[e][1,2]oxaborinine-8-carboxylic Acid] | B (B represents a potency between 64 and 1000 μg/mL inclusive) |  | A (A represents a potency of >1000 μg/mL) | > 128 µg/mL | B (B represents a potency between 64 and 1000 μg/mL inclusive) | 64 to 128 µg/mL
Nc1nc(/C(=C/C(=O)O)C(=O)N[C@H]2Cc3cccc(C(=O)O)c3OB2O)cs1 [Example 89, (R,Z)-3-(2-(2-aminothiazol-4-yl)-3-carboxyacrylamido)-2-hydroxy-3,4-dihydro-2H-benzo[e][1,2]oxaborinine-8-carboxylic Acid] | C (C represents a potency of <64 μg/mL) |  | A (A represents a potency of >1000 μg/mL) | > 128 µg/mL | C (C represents a potency of <64 μg/mL) | 64 to 128 µg/mL
Nc1nc(/C(=N/OCCF)C(=O)N[C@H]2Cc3cccc(C(=O)O)c3OB2O)cs1 [Example 113, (R,Z)-3-(2-(2-aminothiazol-4-yl)-2-((2-fluoroethoxy)imino)acetamido)-2-hydroxy-3,4-dihydro-2H-benzo[e][1,2]oxaborinine-8-carboxylic Acid] |  | B (B represents a potency between 64 and 1000 μg/mL inclusive) |  | 64 to 128 µg/mL |  | < 64 µg/mL

Source: US11267826B2, “Penicillin-binding protein inhibitors” (priority 2017, dated 2022)
